d = 2'-deoxy (DNA); r = 2'-OH (RNA)
What was measured:
Type in all cases: cell-based
CHLA-90 cells [1] = test: Doxorubicin IC50 in siRNA-transfected cells, Cell Titer Glo viability (Example 8)
Procedure: (§1) GPC2 mRNA expression was reduced and changes in cell viability were assessed in multiple neuroblastoma cell lines. Cells were transfected with either a control siRNA or with GPC-2 siRNA sequences 3, 5 or 7 from Table 7 using the RNAiMAX Lipofectamine kit (Invitrogen, Carlsbad, Calif.) as previously described in 96 wells for viability assays. Doxorubicin was added at increasing concentrations (0-5 uM) to transfected cells at 24 hours post transfection. Following a 72 hour incubation period, viability measurements were made using Cell Titer Glo.

CHP212 cells [2] = test: as above
Procedure: as §1

SH-SY5Y cells [3] = test: as above; details: SH-SY5Y cells transfected with the labelled siRNA; doxorubicin added 24 hours post transfection, 72 hour incubation
Procedure: as §1

SK-N-BE2 cells [4] = test: as above
Procedure: as §1

SKNAS cells [5] = test: Etoposide IC50 in siRNA-transfected cells, Cell Titer Glo 2.0 viability (Example 9)
CHLA-172 cells [6] = test: as above
KELLY cells [7] = test: as above
CHLA-136 cells [8] = test: as above; details: CHLA-136 cells transfected with the labelled siRNA; etoposide added 24 hours post transfection, 72 hour incubation
SKNAS cells [9] = test: Cisplatin IC50 in siRNA-transfected cells, Cell Titer Glo 2.0 viability (Example 5)
Procedure: (§2) GPC2 mRNA was reduced using the indicated siRNAs and changes in cell viability were assessed in multiple cancer cell lines, in combination with Cisplatin treatment. Cells were transfected with either a scrambled control siRNA or with GPC2 siRNA sequences 3 or 5 from Table 7 using the RNAiMAX Lipofectamine kit (Invitrogen, Carlsbad, Calif.), as previously described, in either in 96 well (for viability assays) or 6 well format (for total RNA). Cisplatin was added at increasing concentrations (0 to 30 uM) to transfected cells at 24 hours post transfection. Following a 72 hour incubation period, cell viability was measured using Cell Titer Glo 2.0. Total RNA samples were also isolated to measure knockdown efficiency.

TC71 cells = test: as above
Procedure: as §2

CHLA-172 cells [10] = test: as above
Procedure: as §2

CHLA-90 cells [11] = test: as above
Procedure: as §2

KELLY cells [12] = test: as above
Procedure: as §2

CHP212 cells [13] = test: as above
Procedure: as §2

COV362 cells = test: as above
Procedure: as §2

TOV112D cells = test: as above
Procedure: as §2

SH-SY5Y cells [14] = test: as above
Procedure: as §2

RH30 cells = test: as above
Procedure: as §2

SK-N-BE2 cells [15] = test: as above
Procedure: as §2

RH41 cells = test: as above
Procedure: as §2

SNU16 cells = test: as above
Procedure: as §2

GIST-T1 cells = test: as above
Procedure: as §2

TC32 cells = test: as above
Procedure: as §2

CHLA-136 cells [16] = test: as above
Procedure: as §2

“GPC2 siRNA 5: siRNA duplex: sense CUCAGUAGCCCAGCACUCU[dT][dT] (SEQ ID NO: 211), anti-sense AGAGUGCUGGGCUACUGAG[dT][dT] (SEQ ID NO: 212) (sense CUCAGUAGCCCAGCACUCUTT; antisense AGAGUGCUGGGCUACUGAGTT; sugars from the 5' end r19 d2, backbone not given here; listed as Homo sapiens)” was tested. Which “Data Summary: effect of knockdown on sensitivity to doxorubicin” value (from here on “Data Summary: effect … to doxorubicin”) (CHLA-90 cells [1]; CHLA-90) did it give?
The value was “increases sensitivity to”.

What about the IC50 (CHLA-90 cells [1]; CHLA-90 cells transfected with the labelled siRNA, doxorubicin added 24 hours post transfection, 72 hour incubation) of the same substance?
Its IC50 is 250 nM.

And the “Data Summary: effect … to doxorubicin” value (CHP212 cells [2]; CHP212)?
Its value is “does not increase sensitivity”.

And the IC50 (CHP212 cells [2]; CHP212 cells transfected with the labelled siRNA, doxorubicin added 24 hours post transfection, 72 hour incubation)?
The IC50 was 20 nM.

What about the IC50 (SH-SY5Y cells [3]) of the same substance?
Its IC50 is 50 nM.

And the “Data Summary: effect … to doxorubicin” value (SK-N-BE2 cells [4]; SK-N-BE2)?
Its value is “increases sensitivity to”.

And the IC50 (SK-N-BE2 cells [4]; SK-N-BE2 cells transfected with the labelled siRNA, doxorubicin added 24 hours post transfection, 72 hour incubation)?
Its IC50 is 20 nM.

What about the “Data Summary: effect of knockdown on sensitivity to etoposide” value (from here on “Data Summary: effect … to etoposide”) (SKNAS cells [5]; SKNAS) of the same substance?
The value was “increases sensitivity to etoposide”.

What about the IC50 (SKNAS cells [5]; SKNAS cells transfected with the labelled siRNA, etoposide added 24 hours post transfection, 72 hour incubation) of the same substance?
The IC50 was 20 nM.

What about the “Data Summary: effect … to etoposide” value (CHLA-172 cells [6]; CHLA-172) of the same substance?
Its value is “increases sensitivity to etoposide”.

What about the IC50 (CHLA-172 cells [6]; CHLA-172 cells transfected with the labelled siRNA, etoposide added 24 hours post transfection, 72 hour incubation) of the same substance?
Its IC50 is 900 nM.

What about the “Data Summary: effect … to etoposide” value (KELLY cells [7]; KELLY) of the same substance?
Its value is “increases sensitivity to etoposide”.

What about the IC50 (KELLY cells [7]; KELLY cells transfected with the labelled siRNA, etoposide added 24 hours post transfection, 72 hour incubation) of the same substance?
Its IC50 is 60 nM.

And the IC50 (CHLA-136 cells [8])?
The IC50 was 80 nM.

What about the “Data Summary: effect of knockdown on sensitivity to cisplatin” value (“Data Summary: effect … to cisplatin” below) (SKNAS cells [9]; SKNAS) of the same substance?
The value was “increases sensitivity to”.

And the IC50 (SKNAS cells [9]; SKNAS cells transfected with the labelled siRNA, cisplatin added 24 hours post transfection, 72 hour incubation)?
Its IC50 is 9000 nM.

And the “Data Summary: effect … to cisplatin” value (TC71 cells; TC71)?
The value was “does not increase”.

And the IC50 (TC71 cells; TC71 cells transfected with the labelled siRNA, cisplatin added 24 hours post transfection, 72 hour incubation)?
Its IC50 is 1400 nM.

And the “Data Summary: effect … to cisplatin” value (CHLA-172 cells [10]; CHLA-172)?
Its value is “does not increase”.

What about the IC50 (CHLA-172 cells [10]; CHLA-172 cells transfected with the labelled siRNA, cisplatin added 24 hours post transfection, 72 hour incubation) of the same substance?
The IC50 was 17000 nM.

What about the “Data Summary: effect … to cisplatin” value (CHLA-90 cells [11]; CHLA-90) of the same substance?
The value was “increases sensitivity to”.

What about the IC50 (CHLA-90 cells [11]; CHLA-90 cells transfected with the labelled siRNA, cisplatin added 24 hours post transfection, 72 hour incubation) of the same substance?
Its IC50 is 15000 nM.

And the “Data Summary: effect … to cisplatin” value (KELLY cells [12]; KELLY)?
The value was “increases sensitivity to”.

And the IC50 (KELLY cells [12]; KELLY cells transfected with the labelled siRNA, cisplatin added 24 hours post transfection, 72 hour incubation)?
Its IC50 is 2500 nM.

What about the “Data Summary: effect … to cisplatin” value (CHP212 cells [13]; CHP212) of the same substance?
The value was “increases sensitivity to”.

And the IC50 (CHP212 cells [13]; CHP212 cells transfected with the labelled siRNA, cisplatin added 24 hours post transfection, 72 hour incubation)?
The IC50 was 6000 nM.

And the “Data Summary: effect … to cisplatin” value (COV362 cells; COV362)?
The value was “does not increase”.

And the IC50 (COV362 cells; COV362 cells transfected with the labelled siRNA, cisplatin added 24 hours post transfection, 72 hour incubation)?
Its IC50 is 18000 nM.

And the “Data Summary: effect … to cisplatin” value (TOV112D cells; TOV112D)?
Its value is “does not increase”.

What about the IC50 (TOV112D cells; TOV112D cells transfected with the labelled siRNA, cisplatin added 24 hours post transfection, 72 hour incubation) of the same substance?
The IC50 was 7000 nM.

And the “Data Summary: effect … to cisplatin” value (SH-SY5Y cells [14]; SH-SY5Y)?
Its value is “increases sensitivity to”.

And the IC50 (SH-SY5Y cells [14]; SH-SY5Y cells transfected with the labelled siRNA, cisplatin added 24 hours post transfection, 72 hour incubation)?
The IC50 was 9300 nM.

What about the “Data Summary: effect … to cisplatin” value (RH30 cells; RH30) of the same substance?
Its value is “does not increase”.

And the IC50 (RH30 cells; RH30 cells transfected with the labelled siRNA, cisplatin added 24 hours post transfection, 72 hour incubation)?
Its IC50 is 2500 nM.

What about the “Data Summary: effect … to cisplatin” value (SK-N-BE2 cells [15]; SK-N-BE2) of the same substance?
Its value is “increases sensitivity to”.

What about the IC50 (SK-N-BE2 cells [15]; SK-N-BE2 cells transfected with the labelled siRNA, cisplatin added 24 hours post transfection, 72 hour incubation) of the same substance?
Its IC50 is 3000 nM.

What about the “Data Summary: effect … to cisplatin” value (RH41 cells; RH41) of the same substance?
The value was “increases sensitivity to”.

What about the IC50 (RH41 cells; RH41 cells transfected with the labelled siRNA, cisplatin added 24 hours post transfection, 72 hour incubation) of the same substance?
The IC50 was 1000 nM.

And the “Data Summary: effect … to cisplatin” value (SNU16 cells; SNU16)?
Its value is “does not increase”.

What about the IC50 (SNU16 cells; SNU16 cells transfected with the labelled siRNA, cisplatin added 24 hours post transfection, 72 hour incubation) of the same substance?
The IC50 was 16000 nM.

And the “Data Summary: effect … to cisplatin” value (GIST-T1 cells; GIST-T1)?
Its value is “increases sensitivity to”.

What about the IC50 (GIST-T1 cells; GIST-T1 cells transfected with the labelled siRNA, cisplatin added 24 hours post transfection, 72 hour incubation) of the same substance?
Its IC50 is 1000 nM.

What about the “Data Summary: effect … to cisplatin” value (TC32 cells; TC32) of the same substance?
Its value is “does not increase”.

What about the IC50 (TC32 cells; TC32 cells transfected with the labelled siRNA, cisplatin added 24 hours post transfection, 72 hour incubation) of the same substance?
The IC50 was 1200 nM.

What about the “Data Summary: effect … to cisplatin” value (CHLA-136 cells [16]; CHLA-136) of the same substance?
The value was “increases sensitivity to”.

And the IC50 (CHLA-136 cells [16]; CHLA-136 cells transfected with the labelled siRNA, cisplatin added 24 hours post transfection, 72 hour incubation)?
Its IC50 is 6000 nM.

Source: patent US20210171948A1, “COMPOSITIONS AND METHODS FOR TARGETING GLYPICAN-2 IN THE TREATMENT OF CANCER” (Shepherd Therapeutics, Inc., priority 2019, published 2021)
